Assay results published in patent publication US6362203B1, “4-hydroxy-4-phenylpiperidine derivatives and pharmaceuticals containing the same” (SSP Co., LTD, priority 1999, dated 2002).

Columns and labels:
opioid receptor = conditions: agonist activity relative to DAMGO (=1.0); guinea pig ileum longitudinal muscle sample
Experimental: Test 1: Action on the ileum sample excised from a guinea pig
A Hartley male guinea pig of about 500 g in weight was employed. From its ileocecum, 15 to 30 cm of the ileum was excised and a longitudinal muscle sample attached with the Auerbach's plexus was prepared. […] The agonist activity was indicated in terms of relative potency to DAMGO ([D-Ala^2, N-MePhe^4, Gly^5-ol]-enkephalin), a selective μ-opioid agonist.

melting point [°C] | SMILES | Relative potency (opioid receptor)
169 | CN(C)C(=O)C(CCN1CCC(O)(c2cccc(O)c2)CC1)(c1ccccc1)c1ccccc1 | 
155 | CN(C)C(=O)C(CCN1CCC(O)(c2ccc(O)cc2)CC1)(c1ccccc1)c1ccccc1 | 

More lines, now with the values behind:

SMILES | melting point [°C] | Relative potency (opioid receptor)
CN(C)C(=O)C(CCN1CCC(O)(c2ccccc2OCCCCCCO)CC1)(c1ccccc1)c1ccccc1.Cl | 110 | 
CCCCNC(=O)C(CCN1CCC(O)(c2ccccc2OCCO)CC1)(c1ccccc1)c1ccccc1 | 130 to 131 | 
C[C@@H](NC(=O)[C@@H](N)Cc1ccc(O)cc1)C(=O)NCC(=O)N(C)[C@@H](Cc1ccccc1)C(=O)NCCO [DAMGO, [D-Ala^2, N-MePhe^4, Gly^5-ol]-enkephalin] |  | 1.0
